Experimental data reported in ChEMBL document CHEMBL4813933, “Discovery of Thanafactin A, a Linear, Proline-Containing Octalipopeptide from Pseudomonas sp. SH-C52, Motivated by Genome Mining” (J Nat Prod, 2021).
Active and inactive are the calls of the source.

Assays:
[1] = test system: Staphylococcus aureus; assay: Inhibition of quorum sensing system in Staphylococcus aureus PC322 assessed as reduction in swarming motility at 1 mg/ml measured after 1 hr
[2] = test system: Chromobacterium violaceum; assay: Inhibition of quorum sensing system in Chromobacterium violaceum CV026 assessed as reduction in swarming motility at 1 mg/ml measured after 1 hr
[3] = molecular target: T1, Cathepsin K (Homo sapiens) (UniProt P43235); assay: Inhibition of human cathepsin K at 10 uM using Z-Leu-Arg-AMC as substrate incubated for 60 mins by fluorometric assay
T1 sequence (whole entry): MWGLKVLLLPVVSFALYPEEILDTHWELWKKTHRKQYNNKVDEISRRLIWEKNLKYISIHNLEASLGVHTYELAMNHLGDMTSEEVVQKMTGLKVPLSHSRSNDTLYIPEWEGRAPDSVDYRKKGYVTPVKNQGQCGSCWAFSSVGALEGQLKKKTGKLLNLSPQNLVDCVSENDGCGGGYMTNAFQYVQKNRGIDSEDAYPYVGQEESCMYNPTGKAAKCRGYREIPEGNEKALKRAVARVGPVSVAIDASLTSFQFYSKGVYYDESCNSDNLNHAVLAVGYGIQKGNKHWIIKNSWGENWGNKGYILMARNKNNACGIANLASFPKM

Measured: inhibition

CCCCCCC[C@@H](O)CC(=O)N[C@@H](C(=O)N[C@H](C)C(=O)N[C@H](CCC(N)=O)C(=O)N[C@@H](C)C(=O)N[C@@H](C(=O)N[C@@H](C)C(=O)N1CCC[C@H]1C(=O)N[C@H](C(=O)O)[C@@H](C)O)C(C)C)C(C)C
inactive: [1] | [2] | [3]
